# Patent publication US4918074A, “Polyazaheterocycle compounds” (Yoshitomi Pharmaceutical Industries, Ltd., priority 1984, dated 1990)
# Experiments:
# [1] = system: coronary arterial blood flow; experiment: Coronary vasodilating effects in the anesthetized dog; assay type: in vivo; settings: Canis lupus familiaris, iv, read-out: Increase in coronary blood flow; for change in vivo at 0.01 mg/kg: 10 μg/kg; for change in vivo at 0.3 mg/kg: 300 μg/kg; for change in vivo at 0.03 mg/kg: 30 μg/kg
# Description: (§1) Adult mongrel dogs were anesthetized with sodium pentobarbital (30 mg/kg i.v.). Effects of test compounds on arterial blood pressure, coronary arterial blood flow, vertebral blood flow, renal blood flow, left ventricular dp/dt max (dp/dt max) and urine volume were observed. The compounds were administered intravenously (i.v.) or intraduodenally (i.d.).
# left coronary blood flow = experiment: Coronary blood flow after injection into left coronary artery of anesthetized dogs; assay type: in vivo; settings: intracoronary injection, anesthetized dog; for Increase in CBF ED50: dose to increase CBF by half of the effect of nifedipine (3 μg); for Decrease in CBF ED-50: dose to decrease CBF by 50% from basal value
# Description: (§2) Dogs of either sex were anesthetized with sodium pentobarbital (30 mg/kg i.v.). Heparin (500 U/kg i.v.) was administered before making preparation. Under artificial respiration (18 strokes/min, 20 ml/kg tidal volume), left ventricular dp/dt max, and left coronary blood flow were measured (1). Test compounds were injected into the left coronary artery in a volume of 10 or 30 μl. The effects of compounds on coronary blood flow were observed and presented generally as ED50, a dose required to increase coronary blood flow by a half of the effects of nifedipine (3 μg). Similarly, the effects on dp/dt max were observed and shown as ED30, a dose required to increase dp/dt max by 30% of the efffects of isoproterenol (0.1 μg).
# [2] = system: left ventricular dp/dt max; experiment: Left ventricular dp/dt max after injection into left coronary artery of anesthetized dogs; assay type: in vivo; settings: intracoronary injection, anesthetized dog; dose to increase dp/dt max by 30% of effect of isoproterenol (0.1 μg)
# Description: as §2
# arterial blood pressure = experiment: Hypotensive effects in the anesthetized dog; assay type: in vivo; settings: Canis lupus familiaris, iv, read-out: Hypotensive effect; for inhibition in vivo at 0.01 mg/kg: 10 μg/kg; for inhibition in vivo at 0.03 mg/kg: 30 μg/kg
# Description: as §1
# [3] = system: left ventricular dp/dt max; experiment: Cardiotonic effects in the anesthetized dog; assay type: in vivo; settings: Canis lupus familiaris, iv, read-out: Increase in dp/dt max; for change in vivo at 0.3 mg/kg: 300 μg/kg
# Description: as §1
# Rabbit aorta = experiment: Ca2+-agonistic and antagonistic activity in rabbit aorta; settings: compound 10^-6 M
# Description: Rabbit aorta were isolated and cut into ring segments of about 2 mm. These preparations were suspended in 40 ml chambers filled with Krebs-Henseleit solution bubbled with a gas mixture of 95% O2 +5% CO2 (pH 7.4) and kept at 37° C. The contractile response to [K^+ ]o (9-48 mM) was measured in the absence or presence of test compounds (1).
# That is, at lower [K^+ ]o these compounds augmented contractile force, however, at higher [K^+ ]o they produced only relaxation of aorta. [K^+ ]o, at which conversion of the effects of compounds (10^-6 M) occurred, was as follows.
structure (smiles),measurement,setting,value
"CC1=C(C(=O)OCC2CC2)C(c2ccccc2C(F)(F)F)n2nccc2N1 (stereo not drawn) [(6), 6-Cyclopropylmethyloxycarbonyl-5-methyl-7-(2-trifluoromethylphenyl)-4,7-dihydropyrazolo[1,5-a]pyrimidine]",change in vivo at 0.01 mg/kg,[1],45%
"CC1=C(C(=O)OC(C)C)C(c2cc(F)ccc2F)n2nccc2N1 (stereo not drawn) [(32), 7-(2,5-Difluorophenyl)-6-isopropoxycarbonyl-5-methyl-4,7-dihydropyrazolo[1,5-a]pyrimidine]",Increase in CBF ED50,left coronary blood flow,8 µg
same,Increase in dp/dt max ED30,[2],93 µg
"CC1=C(C(=O)OCC2CC2)C(c2ccccc2C(F)(F)F)n2ncc(C#N)c2N1 (stereo not drawn) [(7), 3-Cyano-6-cyclopropylmethyloxycarbonyl-5-methyl-7-(2-trifluoromethylphenyl)-4,7-dihydropyrazolo[1,5-a]pyrimidine]",Increase in CBF ED50,left coronary blood flow,2.0 µg
same,Increase in dp/dt max ED30,[2],> 30 µg
same,inhibition in vivo at 0.01 mg/kg,arterial blood pressure,20%
same,change in vivo at 0.01 mg/kg,[1],52%
"CC1=C(C(=O)OC(C)C)C(c2ccccc2F)n2ncc(C#N)c2N1 (stereo not drawn) [(29), 3-Cyano-7-(2-fluorophenyl)-6-isopropoxycarbonyl-5-methyl-4,7-dihydropyrazolo[1,5-a]pyrimidine]",Increase in CBF ED50,left coronary blood flow,1.0 µg
same,Increase in dp/dt max ED30,[2],> 30 µg
"CCOC(=O)C1=C(C)Nc2ccnn2C1c1ccccc1OC(F)F (stereo not drawn) [(18), 7-(2-Difluoromethoxyphenyl)-6-ethoxycarbonyl-5-methyl-4,7-dihydropyrazolo[1,5-a]pyrimidine]",change in vivo at 0.3 mg/kg,[1],89%
same,change in vivo at 0.3 mg/kg,[3],20%
"CCOC(=O)C1=C(CF)Nc2ccnn2C1c1ccccc1C(F)(F)F (stereo not drawn) [(24), 6-Ethoxycarbonyl-5-fluoromethyl-7-(2-trifluoromethylphenyl)-4,7-dihydropyrazolo[1,5-a]pyrimidine]",Decrease in CBF ED-50,left coronary blood flow,> 300 µg
same,Increase in dp/dt max ED30,[2],86 µg
"CC1=C(C(=O)OCC(C)C)C(c2ccccc2C(F)(F)F)n2nccc2N1 (stereo not drawn) [(12), 6-Isobutoxycarbonyl-5-methyl-7-(2-trifluoromethylphenyl)-4,7-dihydropyrazolo[1,5-a]pyrimidine]",Increase in CBF ED50,left coronary blood flow,1.8 µg
same,Increase in dp/dt max ED30,[2],> 300 µg
"CC1=C(C(=O)OC(C)C)C(c2cccc(Cl)c2Cl)n2nccc2N1 (stereo not drawn) [(28), 7-(2,3-Dichlorophenyl)-6-isopropoxycarbonyl-5-methyl-4,7-dihydropyrazolo[1,5-a]pyrimidine]",inhibition in vivo at 0.03 mg/kg,arterial blood pressure,29%
same,change in vivo at 0.03 mg/kg,[1],53%
"CCOC(=O)C1=C(C)Nc2c(C#N)cnn2C1c1ccccc1C(F)(F)F (stereo not drawn) [(14), 3-Cyano-6-ethoxycarbonyl-5-methyl-7-(2-trifluoromethylphenyl)-4,7-dihydropyrazolo[1,5-a]pyrimidine]",Increase in CBF ED50,left coronary blood flow,1.6 µg
same,Increase in dp/dt max ED30,[2],> 100 µg
same,inhibition in vivo at 0.01 mg/kg,arterial blood pressure,20%
same,change in vivo at 0.01 mg/kg,[1],54%
"CCC(CC)OC(=O)C1=C(C)Nc2ccnn2C1c1ccccc1C(F)(F)F (stereo not drawn) [(22), 5-Methyl-6-(3-pentyloxycarbonyl)-7-(2-trifluoromethylphenyl)-4,7-dihydropyrazolo[1,5-a]pyrimidine]",change in vivo at 0.3 mg/kg,[1],107%
same,change in vivo at 0.3 mg/kg,[3],24%
"CCCCOC(=O)C1=C(C)Nc2ccnn2C1c1ccccc1C(F)(F)F (stereo not drawn) [(3), 6-Butoxycarbonyl-5-methyl-7-(2-trifluoromethylphenyl)-4,7-dihydropyrazolo[1,5-a]pyrimidine]",change in vivo at 0.1 mg/kg,[1]; 100 μg/kg,36%
same,change in vivo at 0.1 mg/kg,[3]; 100 μg/kg,20%
same,[K+]o at which conversion of Ca2+-agonistic to Ca2+-antagonistic action occurred,Rabbit aorta,24 mM
"CCOC(=O)C1=C(C)Nc2ccnn2C1c1ccccc1SCc1ccccc1 (stereo not drawn) [(17), 7-(2-Benzylthiophenyl)-6-ethoxycarbonyl-5-methyl-4,7-dihydropyrazolo[1,5-a]pyrimidine]",Decrease in CBF ED-50,left coronary blood flow,1.1 µg
same,Increase in dp/dt max ED30,[2],6.7 µg
"CCOC(=O)C1=C(C)Nc2c(Cl)cnn2C1c1ccccc1C(F)(F)F (stereo not drawn) [(16), 3-Chloro-6-ethoxycarbonyl-5-methyl-7-(2-trifluoromethylphenyl)-4,7-dihydropyrazolo[1,5-a]pyrimidine]",inhibition in vivo at 0.3 mg/kg,arterial blood pressure; 300 μg/kg,29%
same,change in vivo at 0.3 mg/kg,[1],113%
"CCOC(=O)C1=C(C)Nc2ccnn2C1c1ccccc1Cl (stereo not drawn) [(4), 7-(2-Chlorophenyl)-6-ethoxycarbonyl-5-methyl-4,7-dihydropyrazolo[1,5-a]pyrimidine]",change in vivo at 0.3 mg/kg,[1],33%
"CCOC(=O)C1=C(C)Nc2nnnn2C1c1ccccc1C(F)(F)F (stereo not drawn) [(21), 6-Ethoxycarbonyl-5-methyl-7-(2-trifluoromethylphenyl)-4,7-dihydrotetrazolo[1,5-a]pyrimidine]",change in vivo at 0.3 mg/kg,[1],63%
"CC1=C(C(=O)OC(C)C)C(c2ccccc2Cl)n2nccc2N1 (stereo not drawn) [(26), 7-(2-Chlorophenyl)-6-isopropoxycarbonyl-5-methyl-4,7-dihydropyrazolo[1,5-a]pyrimidine]",Increase in CBF ED50,left coronary blood flow,13 µg
same,Increase in dp/dt max ED30,[2],133 µg
same,change in vivo at 0.03 mg/kg,[1],33%
"CCCOC(=O)C1=C(C)Nc2ccnn2C1c1ccccc1C(F)(F)F (stereo not drawn) [(11), 5-Methyl-6-propoxycarbonyl-7-(2-trifluoromethylphenyl)-4,7-dihydropyrazolo[1,5-a]pyrimidine]",change in vivo at 0.01 mg/kg,[1],36%
same,[K+]o at which conversion of Ca2+-agonistic to Ca2+-antagonistic action occurred,Rabbit aorta,22 mM
"CC1=C(C(=O)OC(C)C)C(c2cccc(F)c2F)n2nccc2N1 (stereo not drawn) [(31), 7-(2,3-Difluorophenyl)-6-isopropoxycarbonyl-5-methyl-4,7-dihydropyrazolo[1,5-a]pyrimidine]",Increase in CBF ED50,left coronary blood flow,1.4 µg
same,Increase in dp/dt max ED30,[2],> 30 µg
"COCC(OC(=O)C1=C(C)Nc2ccnn2C1c1ccccc1C(F)(F)F)c1ccccc1 (stereo not drawn) [(8), 1-Phenyl-2-methoxyethyl 5-methyl-7-(2-trifluoromethylphenyl)-4,7-dihydropyrazolo[1,5-a]pyrimidine-6-carboxylate (β-form of diastereomer)]",change in vivo at 0.01 mg/kg,[1],33%
"CCOC(=O)C1=C(C)Nc2ccnn2C1c1ccccc1C(F)(F)F (single isomer, unassigned) [(20), 6-Ethoxycarbonyl-5-methyl-7-(2-trifluoromethylphenyl)-4,7-dihydropyrazolo[1,5-a]pyrimidine, optical isomer (-)]",inhibition in vivo at 0.01 mg/kg,arterial blood pressure,22%
"CCOC(=O)C1=C(CO)Nc2ccnn2C1c1ccccc1C(F)(F)F (stereo not drawn) [(5), 6-Ethoxycarbonyl-5-hydroxymethyl-7-(2-trifluoromethylphenyl)-4,7-dihydropyrazolo[1,5-a]pyrimidine]",change in vivo at 0.3 mg/kg,[1],43%
same,change in vivo at 0.3 mg/kg,[3],20%
"CC1=C(C(=O)OC(CN2CCCCC2)c2ccccc2)C(c2cccc([N+](=O)[O-])c2)n2ccnc2N1 (stereo not drawn) [(34), 1-Phenyl-2-piperidinoethyl 7-methyl-5-(3-nitrophenyl)-5,8-dihydroimidazo[1,2-a]pyrimidine-6-carboxylate (β-form of diastereomer)]",Increase in CBF ED50,left coronary blood flow,10.0 µg
same,Increase in dp/dt max ED30,[2],> 30 µg
"CC1=C(C(=O)OC(C)C)C(c2cccc(F)c2F)n2ncc(C#N)c2N1 (stereo not drawn) [(35), 3-Cyano-7-(2,3-difluorophenyl)-6-isopropoxycarbonyl-5-methyl-4,7-dihydropyrazolo[1,5-a]pyrimidine]",Increase in CBF ED50,left coronary blood flow,0.28 µg
same,Increase in dp/dt max ED30,[2],> 30 µg
"CC1=C(C(=O)OC(C)C)C(c2cccc(F)c2Cl)n2nccc2N1 (stereo not drawn) [(33), 7-(2-Chloro-3-fluorophenyl)-6-isopropoxycarbonyl-5-methyl-4,7-dihydropyrazolo[1,5-a]pyrimidine]",Increase in CBF ED50,left coronary blood flow,1.4 µg
same,Increase in dp/dt max ED30,[2],> 30 µg
"CC1=C(C(=O)OC(CN2CCCCC2)c2ccccc2)C(c2cccc([N+](=O)[O-])c2)n2nccc2N1 (stereo not drawn) [(2), 1-Phenyl-2-piperidinoethyl 5-methyl-7-(3-nitrophenyl)-4,7-dihydropyrazolo[1,5-a]pyrimidine-6-carboxylate (β-form of diastereomer)]",Increase in CBF ED50,left coronary blood flow,1.5 µg
same,Increase in dp/dt max ED30,[2],> 10 µg
same,inhibition in vivo at 0.03 mg/kg,arterial blood pressure,37%
"COc1ccc(CCOC(=O)C2=C(C)Nc3ccnn3C2c2ccccc2C(F)(F)F)cc1OC (stereo not drawn) [(19), 6-[2-(3,4-Dimethoxyphenyl)ethyl]oxycarbonyl-5-methyl-7-(2-trifluoromethylphenyl)-4,7-dihydropyrazolo[1,5-a]pyrimidine]",Decrease in CBF ED-50,left coronary blood flow,1.2 µg
same,Increase in dp/dt max ED30,[2],14 µg
